Values of other authors, collected in patent US7432394B2, “Resolution of α-(phenoxy) phenylacetic acid derivatives with naphthyl-alkylamines” (Metabolex, Inc., priority 2005, dated 2008).

Biological target: cytochrome P450 2C9 (Homo sapiens, UniProt P11712)
Sequence (P11712 whole entry): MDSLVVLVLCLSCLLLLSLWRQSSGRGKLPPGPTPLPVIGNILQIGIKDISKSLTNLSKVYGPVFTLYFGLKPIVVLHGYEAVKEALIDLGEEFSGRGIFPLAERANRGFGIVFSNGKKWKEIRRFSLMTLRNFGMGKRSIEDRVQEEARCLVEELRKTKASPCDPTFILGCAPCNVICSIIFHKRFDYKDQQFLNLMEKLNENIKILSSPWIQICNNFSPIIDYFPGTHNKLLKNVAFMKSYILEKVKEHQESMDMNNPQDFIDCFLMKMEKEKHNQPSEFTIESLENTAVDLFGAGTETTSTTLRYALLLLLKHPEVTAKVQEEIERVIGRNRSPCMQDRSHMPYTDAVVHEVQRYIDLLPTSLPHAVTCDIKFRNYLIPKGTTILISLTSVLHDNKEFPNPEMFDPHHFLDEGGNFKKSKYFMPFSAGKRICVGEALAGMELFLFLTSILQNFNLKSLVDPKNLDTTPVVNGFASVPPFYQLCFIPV

Row | inhibition of cytochrome P450 2C9 (racemic acid, result in words) | ability to inhibit cytochrome P450 2C9 compared to the (+)-enantiomer (fold less active than the (+)-enantiomer of halofenic acid) | SMILES
1 | inhibits cytochrome P450 2C9 |  | O=C(O)C(Oc1cccc(C(F)(F)F)c1)c1ccc(Cl)cc1 (racemic) [halofenic acid, (4-chlorophenyl)(3-trifluoromethylphenoxy)acetic acid]
2 |  | about twenty-fold less active | O=C(O)C(Oc1cccc(C(F)(F)F)c1)c1ccc(Cl)cc1 (single isomer, unassigned; (-)) [(−)-enantiomer of halofenic acid, (−)-4-chloro-α-(3-trifluoromethylphenoxy)phenylacetic acid]
